In BindingDB's records for patent US20250034165 (Chia Tai Tianqing Pharmaceutical Group, 2025):

What was measured:
[1] = biological target: Epidermal growth factor receptor [T790M,C797S,L858R] (UniProt P00533, C797S/L858R/T790M); assay: Inhibitory Activity for EGFR (L858R/T790M/C797S) Kinase
Experimental: (§1) A 50 ng/μL EGFR (L858R/T790M/C797S, BPS) stock solution was diluted with a kinase buffer (50 mM HEPES, 10 mM MgCl2, 2 mM DTT, 1 mM EGTA, 0.01% Tween 20), and 6 μL of 1.67× working solution at 0.00167 ng/μL (final concentration: 0.001 ng/μL) was added to each well. Different compounds dissolved in DMSO were added to wells using a nanoliter pipettor, resulting in the final concentrations of the compounds of 10 nM to 0.0024 nM (4-fold gradient, 7 concentrations in total), and blank control wells (without enzyme) and negative control wells (with enzyme, plus vehicle DMSO) were set, 2 replicate wells for each concentration. After enzyme was reacted with the compound or vehicle for 30 min, 5×ATP at 25 μM (final concentration: 5 μM, Sigma) prepared with a kinase buffer was mixed with 5× substrate at 0.5 μM (final concentration: 0.1 μM, ULight-poly GT, PerkinElmer) at a ratio of 1:1 (v:v), and the mixture was added to each well at 4 μL/well. After being sealed with a film, the plate was incubated at room temperature for 2 h, and then 5 μL of 4×EDTA at 40 mM (final concentration: 10 mM) was added to each well. After the plate was incubated for 5 min at room temperature, 5 μL of 4× detection reagent at 8 nM (final concentration: 2 nM, Eu-anti-phospho-tyrosine antibody, PerkinElmer) was added to each well. After being incubated at room temperature for 1 h, the plate was read using a PerkinElmer Envision multi-mode microplate reader (excitation: 320 nm, emission: 665 nm), and IC50 was calculated by four-parameter fitting.

[2] = biological target: Epidermal growth factor receptor (Homo sapiens, UniProt P00533); assay: Inhibitory Activity for EGFR (WT) Kinase
Epidermal growth factor receptor, sequence (P00533 whole entry): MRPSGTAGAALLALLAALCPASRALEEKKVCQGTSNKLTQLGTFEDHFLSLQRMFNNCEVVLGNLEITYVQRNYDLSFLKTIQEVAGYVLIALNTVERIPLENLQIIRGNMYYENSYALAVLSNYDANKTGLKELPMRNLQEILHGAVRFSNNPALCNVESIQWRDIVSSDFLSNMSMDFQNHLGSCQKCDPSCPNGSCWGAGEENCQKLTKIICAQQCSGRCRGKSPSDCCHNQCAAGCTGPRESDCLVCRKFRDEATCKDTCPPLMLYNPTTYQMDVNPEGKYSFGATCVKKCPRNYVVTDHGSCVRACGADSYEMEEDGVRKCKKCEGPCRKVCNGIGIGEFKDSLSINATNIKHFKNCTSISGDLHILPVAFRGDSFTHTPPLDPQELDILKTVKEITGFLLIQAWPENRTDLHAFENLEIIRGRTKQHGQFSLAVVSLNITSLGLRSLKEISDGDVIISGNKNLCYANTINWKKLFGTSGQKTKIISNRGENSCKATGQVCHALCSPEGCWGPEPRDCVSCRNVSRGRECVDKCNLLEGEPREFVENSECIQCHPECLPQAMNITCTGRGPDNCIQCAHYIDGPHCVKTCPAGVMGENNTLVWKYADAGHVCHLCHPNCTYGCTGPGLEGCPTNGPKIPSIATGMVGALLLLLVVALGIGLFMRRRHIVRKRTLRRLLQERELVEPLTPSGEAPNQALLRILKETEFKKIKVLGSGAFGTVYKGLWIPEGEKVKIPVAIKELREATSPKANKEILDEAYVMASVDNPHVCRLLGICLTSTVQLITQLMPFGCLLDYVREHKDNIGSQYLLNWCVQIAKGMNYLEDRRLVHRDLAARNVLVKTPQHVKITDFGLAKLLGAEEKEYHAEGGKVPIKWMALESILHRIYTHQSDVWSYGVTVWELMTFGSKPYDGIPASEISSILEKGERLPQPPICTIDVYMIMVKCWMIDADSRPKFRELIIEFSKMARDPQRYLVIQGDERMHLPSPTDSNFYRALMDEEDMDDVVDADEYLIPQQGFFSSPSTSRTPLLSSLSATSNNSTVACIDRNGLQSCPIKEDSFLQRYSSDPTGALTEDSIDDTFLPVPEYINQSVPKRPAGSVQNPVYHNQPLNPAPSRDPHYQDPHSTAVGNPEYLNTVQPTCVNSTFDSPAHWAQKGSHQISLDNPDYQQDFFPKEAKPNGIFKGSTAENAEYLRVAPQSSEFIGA
Experimental: A 50 ng/μL EGFR (WT, Carna) stock solution was diluted with a kinase buffer (50 mM HEPES, 10 mM MgCl2, 2 mM DTT, 1 mM EGTA, 0.01% Tween 20), and 6 μL of 1.67× working solution at 0.005 ng/μL (final concentration: 0.003 ng/μL) was added to each well. Different compounds dissolved in DMSO were added to the wells using a nanoliter pipettor, resulting in the final concentrations of the compounds of 100 nM to 0.0244 nM (4-fold gradient for 7 concentrations in total), and blank control wells (without enzyme) and negative control wells (with enzyme, plus vehicle DMSO) were set, 2 replicate wells for each concentration. After enzyme was reacted with the compound or vehicle for 30 min, 5×ATP at 25 μM (final concentration: 5 μM, Sigma) prepared with a kinase buffer was mixed with 5× substrate at 0.5 μM (final concentration: 0.1 μM, ULight-poly GT, PerkinElmer) at a ratio of 1:1 (v:v), and the mixture was added to each well at 4 μL/well. After being sealed with a film, the plate was incubated at room temperature for 2 h, and then 5 μL of 4×EDTA at 40 mM (final concentration: 10 mM) was added to each well. After the plate was incubated for 5 min at room temperature, 5 μL of 4× detection reagent at 8 nM (final concentration: 2 nM, Eu-anti-phospho-tyrosine antibody, PerkinElmer) was added to each well.

[3] = biological target: Epidermal growth factor receptor (EGFR)(L858R)(T790M) (Homo sapiens, UniProt P00533, L858R/T790M); assay: Inhibitory Activity for EGFR (L858R/T790M) Kinase
Epidermal growth factor receptor (EGFR)(L858R)(T790M), sequence (P00533 25-1210 T790M/L858R limits assumed): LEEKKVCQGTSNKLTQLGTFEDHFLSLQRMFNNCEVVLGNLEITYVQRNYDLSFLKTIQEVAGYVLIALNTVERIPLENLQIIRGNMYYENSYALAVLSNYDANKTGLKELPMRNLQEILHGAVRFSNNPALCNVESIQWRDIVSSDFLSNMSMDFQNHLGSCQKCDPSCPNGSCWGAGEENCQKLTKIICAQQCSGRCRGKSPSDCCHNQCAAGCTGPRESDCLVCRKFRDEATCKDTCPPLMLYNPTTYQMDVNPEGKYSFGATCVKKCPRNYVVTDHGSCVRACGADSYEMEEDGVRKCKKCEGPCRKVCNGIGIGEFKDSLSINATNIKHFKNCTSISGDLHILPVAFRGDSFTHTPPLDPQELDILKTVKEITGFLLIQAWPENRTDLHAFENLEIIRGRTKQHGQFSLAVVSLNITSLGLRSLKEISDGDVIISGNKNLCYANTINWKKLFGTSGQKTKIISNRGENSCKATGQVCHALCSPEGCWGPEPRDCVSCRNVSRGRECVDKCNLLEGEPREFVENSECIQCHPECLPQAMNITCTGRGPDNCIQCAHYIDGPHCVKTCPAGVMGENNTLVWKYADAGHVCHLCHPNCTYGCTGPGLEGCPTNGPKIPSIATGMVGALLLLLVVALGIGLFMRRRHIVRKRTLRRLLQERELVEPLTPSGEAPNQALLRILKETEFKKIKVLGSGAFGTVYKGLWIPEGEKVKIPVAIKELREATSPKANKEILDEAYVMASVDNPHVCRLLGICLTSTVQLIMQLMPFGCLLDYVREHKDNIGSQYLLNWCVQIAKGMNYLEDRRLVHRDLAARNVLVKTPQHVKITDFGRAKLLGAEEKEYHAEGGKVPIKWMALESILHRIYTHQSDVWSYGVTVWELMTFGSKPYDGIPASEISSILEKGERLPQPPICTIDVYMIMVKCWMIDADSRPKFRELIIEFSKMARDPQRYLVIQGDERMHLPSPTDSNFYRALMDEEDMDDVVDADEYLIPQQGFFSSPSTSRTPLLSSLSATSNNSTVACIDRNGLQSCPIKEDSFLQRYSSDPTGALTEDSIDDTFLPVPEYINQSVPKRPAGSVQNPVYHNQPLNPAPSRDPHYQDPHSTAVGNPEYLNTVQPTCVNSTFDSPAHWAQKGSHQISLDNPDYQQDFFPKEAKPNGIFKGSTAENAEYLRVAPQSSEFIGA
Experimental: as §1, with “(L858R/T790M, Carna)” for “(L858R/T790M/C797S, BPS)”, “0.004175” for “0.00167”, “0.0025” for “0.001”

Epidermal growth factor receptor [T790M,C797S,L858R], sequence (P00533 25-1210 T790M/C797S/L858R limits assumed): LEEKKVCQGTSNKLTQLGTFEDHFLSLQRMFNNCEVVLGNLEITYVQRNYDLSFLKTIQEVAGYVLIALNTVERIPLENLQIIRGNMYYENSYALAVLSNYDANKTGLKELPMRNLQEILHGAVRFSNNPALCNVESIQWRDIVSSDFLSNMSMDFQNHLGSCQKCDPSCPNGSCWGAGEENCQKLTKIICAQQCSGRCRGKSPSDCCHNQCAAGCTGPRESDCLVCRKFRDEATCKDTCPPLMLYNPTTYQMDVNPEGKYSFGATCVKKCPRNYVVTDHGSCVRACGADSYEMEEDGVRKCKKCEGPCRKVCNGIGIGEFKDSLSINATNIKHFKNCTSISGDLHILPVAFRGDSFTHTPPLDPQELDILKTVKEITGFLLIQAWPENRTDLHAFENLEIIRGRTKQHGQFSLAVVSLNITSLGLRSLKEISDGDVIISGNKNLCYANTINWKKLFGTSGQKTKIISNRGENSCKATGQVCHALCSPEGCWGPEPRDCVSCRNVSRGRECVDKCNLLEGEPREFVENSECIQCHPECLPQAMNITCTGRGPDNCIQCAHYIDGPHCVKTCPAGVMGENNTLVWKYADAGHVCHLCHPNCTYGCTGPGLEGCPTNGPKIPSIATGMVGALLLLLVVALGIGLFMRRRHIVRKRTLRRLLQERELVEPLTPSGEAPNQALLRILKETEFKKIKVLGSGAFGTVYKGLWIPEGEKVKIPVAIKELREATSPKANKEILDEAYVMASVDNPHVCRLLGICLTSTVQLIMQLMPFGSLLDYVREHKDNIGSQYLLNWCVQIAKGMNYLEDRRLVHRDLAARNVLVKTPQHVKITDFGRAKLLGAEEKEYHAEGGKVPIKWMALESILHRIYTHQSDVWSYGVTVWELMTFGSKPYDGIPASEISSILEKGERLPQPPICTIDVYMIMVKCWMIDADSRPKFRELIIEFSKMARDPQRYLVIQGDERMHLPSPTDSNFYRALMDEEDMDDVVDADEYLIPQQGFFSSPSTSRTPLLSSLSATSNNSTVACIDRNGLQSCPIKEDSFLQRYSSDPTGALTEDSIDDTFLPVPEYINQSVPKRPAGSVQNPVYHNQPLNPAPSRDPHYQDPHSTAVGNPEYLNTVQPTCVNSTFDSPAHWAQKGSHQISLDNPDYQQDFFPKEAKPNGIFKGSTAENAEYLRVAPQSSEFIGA

Structure (SMILES)	IC50 [1]	IC50 [2]	IC50 [3]
Cc1cc2cc(n1)-c1cnn(C3CC3)c1OCCC[C@@H](C)CN1/C(=N/C2=O)Nc2cc(NCCN3CCOCC3)ccc21 [US20250034165, Example 5]	–	3.1 nM	0.091 nM
Cc1cc2cc(n1)-c1cnn(C)c1OCCC[C@@H](C1CC1)CN1/C(=N/C2=O)Nc2ccc(OCCN(C)C)cc21 [US20250034165, Example 11]	0.055 nM	1.9 nM	0.044 nM
Cc1cc2cc(n1)-c1cnn(C3CC3)c1OCCC[C@@H](C)CN1/C(=N/C2=O)Nc2cc(NC3CCN(C)CC3)ccc21 [US20250034165, Example 12]	0.2 nM	2.6 nM	0.19 nM
Cc1cc2cc(n1)-c1cnn(C3CC3)c1OCCC[C@@H](C)CN1/C(=N/C2=O)Nc2cc(N[C@@H]3CCOC3)ccc21 [US20250034165, Example 13]	0.095 nM	2 nM	0.088 nM
Cc1cc2cc(n1)-c1cnn(C3CC3)c1OCCC[C@@H](C)CN1/C(=N/C2=O)Nc2cc(NC[C@H]3COCCO3)ccc21 [US20250034165, Example 14]	–	4 nM	0.11 nM
Cc1cc2cc(n1)-c1cnn(C3CC3)c1OCCC[C@@H](C)CN1/C(=N/C2=O)Nc2ccc(N3CC[C@H](O)C3)cc21 [US20250034165, Example 16]	0.12 nM	3.4 nM	–
Cc1cc2cc(n1)-c1cnn(C)c1OCCC[C@@H](C1CC1)CN1/C(=N/C2=O)Nc2cc(N[C@@H]3CCCOC3)ccc21 [US20250034165, Example 18]	0.051 nM	1.7 nM	–
Cc1cc2cc(n1)-c1cnn(C)c1OCCC[C@@H](C1CC1)CN1/C(=N/C2=O)Nc2cc(NC[C@H]3COCCO3)ccc21 [US20250034165, Example 19]	0.035 nM	1.8 nM	–
Cc1cc2cc(n1)-c1cnn(C)c1OCCC[C@@H](C1CC1)CN1/C(=N/C2=O)Nc2ccc(N3CC[C@H](O)C3)cc21 [US20250034165, Example 21]	0.075 nM	2.4 nM	–
Cc1cc2cc(n1)-c1cnn(C)c1OCCC[C@@H](C1CC1)CN1/C(=N/C2=O)Nc2cc(NCC3CCOCC3)ccc21 [US20250034165, Example 22]	0.052 nM	2 nM	0.04 nM
Cc1cc2cc(n1)-c1cnn(C)c1OCCC[C@@H](C1CC1)CN1/C(=N/C2=O)Nc2cc(NC3(C)COC3)ccc21 [US20250034165, Example 29]	0.021 nM	1.4 nM	0.019 nM
Cc1cc2cc(n1)-c1cnn(C)c1OCCC[C@@H](C1CC1)CN1/C(=N/C2=O)Nc2cc(NC3COC3(C)C)ccc21 (stereo not given in full) [US20250034165, Example 30]	0.12 nM	2.8 nM	0.13 nM
Cc1cc2cc(n1)-c1cnn(C)c1OCCC[C@@H](C1CC1)CN1/C(=N/C2=O)Nc2cc(NC3C(C)(C)OC3(C)C)ccc21 [US20250034165, Example 31]	0.042 nM	2.2 nM	0.038 nM
Cc1cc2cc(n1)-c1cnn(C)c1OCCC[C@@H](C1CC1)CN1/C(=N/C2=O)Nc2cc(NCC3COC3)ccc21 [US20250034165, Example 36]	0.035 nM	1.5 nM	0.033 nM
Cc1cc2cc(n1)-c1cnn(C)c1OCCC[C@@H](C1CC1)CN1/C(=N/C2=O)Nc2cc(NC(C)C3COC3)ccc21 (stereo not given in full) [US20250034165, Example 37]	0.037 nM	1.4 nM	0.027 nM
Cc1cc2cc(n1)-c1cnn(C)c1OCCC[C@@H](C1CC1)CN1/C(=N/C2=O)Nc2cc(NCCCCN(C)C)ccc21 [US20250034165, Example 51]	–	1.8 nM	0.017 nM

Compounds with a lower IC50 [2], results first:

IC50 [1]	IC50 [2]	IC50 [3]	Structure (SMILES)
0.022 nM	0.864 nM	–	Cc1cc2cc(n1)-c1cnn(C)c1OCCC[C@@H](C1CC1)CN1/C(=N/C2=O)Nc2cc(NCCN3CCOCC3)ccc21 [US20250034165, Example 3]
0.019 nM	0.12 nM	0.02 nM	Cc1cc2cc(n1)-c1cnn(C)c1OCCC[C@@H](C1CC1)CN1/C(=N/C2=O)Nc2cc(NC3CCN(C)CC3)ccc21 [US20250034165, Example 10]
0.008 nM	0.7 nM	0.011 nM	Cc1cc2cc(n1)-c1cnn(C3CC3)c1OCCC[C@@H](C)CN1/C(=N/C2=O)Nc2ccc(NCCN(C)C)cc21 [US20250034165, Example 17]
–	0.2 nM	0.016 nM	Cc1cc2cc(n1)-c1cnn(C)c1OCCC[C@@H](C1CC1)CN1/C(=N/C2=O)Nc2ccc(NC3CCN(C)CC3)cc21 [US20250034165, Example 20]
0.033 nM	0.78 nM	0.03 nM	Cc1cc2cc(n1)-c1cnn(C)c1OCCC[C@@H](C1CC1)CN1/C(=N/C2=O)Nc2ccc(NCCCN(C)C)cc21 [US20250034165, Example 27]
0.029 nM	0.34 nM	0.018 nM	Cc1cc2cc(n1)-c1cnn(C)c1OCCC[C@@H](C1CC1)CN1/C(=N/C2=O)Nc2cc(NC3CNC3)ccc21 [US20250034165, Example 32]
0.012 nM	0.47 nM	–	Cc1cc2cc(n1)-c1cnn(C)c1OCCC[C@@H](C1CC1)CN1/C(=N/C2=O)Nc2cc(NC3CN(C)C3)ccc21 [US20250034165, Example 33]
0.028 nM	0.4 nM	–	Cc1cc2cc(n1)-c1cnn(C)c1OCCC[C@@H](C1CC1)CN1/C(=N/C2=O)Nc2cc(NC3(C)CNC3)ccc21 [US20250034165, Example 34]
0.039 nM	1.2 nM	–	Cc1cc2cc(n1)-c1cnn(C)c1OCCC[C@@H](C1CC1)CN1/C(=N/C2=O)Nc2cc(N[C@@H]3CCOC3)ccc21 [US20250034165, Example 43]
–	0.55 nM	0.023 nM	Cc1cc2cc(n1)-c1cnn(C)c1OCCC[C@@H](C1CC1)CN1/C(=N/C2=O)Nc2cc(NC3CCN(C(C)C)CC3)ccc21 [US20250034165, Example 47]
0.066 nM	1.3 nM	–	Cc1cc2cc(n1)-c1cnn(C)c1OCCC[C@@H](C1CC1)CN1/C(=N/C2=O)Nc2cc(NCCCN)ccc21 [US20250034165, Example 50]
–	0.51 nM	0.012 nM	Cc1cc2cc(n1)-c1cnn(C)c1OCCC[C@@H](C1CC1)CN1/C(=N/C2=O)Nc2ccc(NCCN)cc21 [US20250034165, Example 58]
–	0.33 nM	0.009 nM	Cc1cc2cc(n1)-c1cnn(C)c1OCCC[C@@H](C1CC1)CN1/C(=N/C2=O)Nc2ccc(NC(C)CN(C)C)cc21 (stereo not given in full) [US20250034165, Example 63]
0.014 nM	0.58 nM	–	Cc1cc2cc(n1)-c1cnn(C)c1OCCC[C@@H](C1CC1)CN1/C(=N/C2=O)Nc2ccc(NCCN3CCCC3)cc21 [US20250034165, Example 82]
–	1.2 nM	0.1 nM	Cc1cc2cc(n1)-c1cnn(C)c1OCCC[C@@H](C1CC1)CN1/C(=N/C2=O)Nc2ccc(NCCCN3CCCC3)cc21 [US20250034165, Example 84]
